Source: patent US8779157B2, “MGLUR4 allosteric potentiators, compositions, and methods of treating neurological dysfunction” (Vanderbilt University, priority 2009, dated 2014)

Target: mGluR4 (UniProt Q14833)
Assay: mGluR4 potentiation assay (fluorescence, Ca2+ or thallium/GIRK readout; EC20 agonist)
Format: cell-based, human / rat
Settings: half maximal effective concentration for mGluR4 potentiation; species of receptor not given
Procedure: The disclosed compounds and compositions can be evaluated for their ability to act as a potentiator of metabotropic glutamate receptor activity, in particular mGluR4 activity, by any suitable known methodology known in the art. For example, Chinese Hamster Ovary (CHO) cells transfected with human mGluR4 or HEK cells co-transfected with rat mGluR4 and the G-protein regulated Inwardly Rectifying Potassium channel (GIRK) were plated in clear bottom assay plates for assay in a Hamamatsu FDSS Fluorometric Plate Reader. The cells were loaded with either a Ca2+-sensitive fluorescent dye or the thallium responsive dye and the plates were washed and placed into a suitable kinetic plate reader. For human mGluR4 assays, a fluorescence baseline was established for 3-5 seconds, the disclosed compounds were then added to the cells, and the response in cells was measured. Approximately two and a half minutes later, a concentration of mGluR4 orthosteric agonist (e.g. glutamate or L-AP4) eliciting approximately 20% (EC20) of the maximal agonist response was added to the cells, and the response was measured. Two minutes later, a concentration of mGluR4 agonist (e.g. glutamate or L-AP4) eliciting 80% (EC80) of the maximal agonist response was added to the cells, and the response was measured. For rat mGluR4/GIRK experiments, a baseline was established for approximately five seconds, disclosed compounds were added, and either an EC20 or EC80 concentration of agonist was added approximately two and one half minutes later. Potentiation of the agonist response of mGluR4 by the disclosed compounds was observed as an increase in response to the EC20 concentration of agonist in the presence of compound compared to the response to agonist in the absence of compound. Similarly, antagonism of the agonist response of mGluR4 by the disclosed compounds was observed as a decrease in response to the EC80 concentration of agonist in the presence of compound compared to the response to agonist in the absence of compound.
The above described assay operated in two modes. In the first mode, a range of concentrations of the disclosed compounds are added to cells, followed by a single fixed concentration of agonist. If the compound acts as a potentiatior, an EC50 value for potentiation and a maximum extent of potentiation by the compound at this concentration of agonist is determined by non-linear curve fitting. If the compound acts as a noncompetitive antagonist, an IC50 value is determined by non-linear curve fitting. In the second mode, several fixed concentrations of the disclosed compounds are added to various wells on a plate, followed by a range in concentrations of agonist for each concentration of disclosed compound. The EC50 values for the agonist at each concentration of compound are determined by non-linear curve fitting. A decrease in the EC50 value of the agonist with increasing concentrations of the sample compound (a leftward shift of the agonist concentration-response curve) is an indication of the degree of mGluR4 potentiation at a given concentration of the sample compound. A decrease in the maximal response of the agonist with increasing concentrations of the sample compounds, with or without a rightward shift in agonist potency, is an indication of the degree of noncompetitive antagonism at mGluR4. The second mode also indicates whether the sample compounds also affect the maximum response to mGluR4 to agonists.

| Structure (SMILES) | EC50 [nM] |
| --- | --- |
| COc1cc(NC(=O)c2ccccn2)ccc1N1C(=O)C2CCCCN2C1=O (stereo not shown) [Example 1.3.1, N-(4-(1,3-dioxotetrahydroimidazo[1,5-a]pyridin-2(1H,3H,5H)-yl)-3-methoxyphenyl)picolinamide] | 2700 |
| O=C(Nc1ccc(N2C(=O)C3CCCCN3C2=O)c(Cl)c1)c1ccccn1 (stereo not shown) [Example 1.3.2, N-(3-chloro-4-(1,3-dioxotetrahydroimidazo[1,5-a]pyridin-2(1H,3H,5H)-yl)phenyl)picolinamide] | 814 |
| O=C(Nc1ccc(N2C(=O)C3CCCCN3C2=O)cc1)c1ccccn1 (stereo not shown) [Example 1.3.3, N-(4-(1,3-dioxotetrahydroimidazo[1,5-a]pyridin-2(1H,3H,5H)-yl)phenyl)picolinamide] | 3120 |
| O=C(Nc1ccc(N2C(=O)C3CCCCN3C2=O)c(Cl)c1)c1cccc(F)n1 (stereo not shown) [Example 1.3.4, N-(3-Chloro-4-(1,3-dioxotetrahydroimidazo[1,5-a]pyridin-2(1H,3H,5H)-yl)phenyl)-6-fluoropicolinamide] | 1670 |
| O=C(Nc1ccc(N2C(=O)C3CCCCN3C2=O)c(Cl)c1)c1cscn1 (stereo not shown) [Example 1.3.5, N-(3-Chloro-4-(1,3-dioxotetrahydroimidazo[1,5-a]pyridin-2(1H,3H,5H)-yl)phenyl)thiazole-4-carboxamide] | 1980 |
| O=C(Nc1ccc(N2C(=O)C3CCCCN3C2=O)c(Cl)c1)c1ccncn1 (stereo not shown) [Example 1.3.6, N-(3-Chloro-4-(1,3-dioxotetrahydroimidazo[1,5-a]pyridin-2(1H,3H,5H)-yl)phenyl)pyrimidine-4-carboxamide] | 2580 |
| O=C(Nc1ccc(N2C(=O)C3CCCCN3C2=O)c(Cl)c1)c1ncccc1F (stereo not shown) [Example 1.3.7, N-(3-Chloro-4-(1,3-dioxotetrahydroimidazo[1,5-a]pyridin-2(1H,3H,5H)-yl)phenyl)-3-fluoropicolinamide] | 3310 |
| O=C(Nc1ccc(N2C(=O)C3CCCCN3C2=O)c(Cl)c1)c1ccc(Cl)o1 (stereo not shown) [Example 1.3.8, 5-Chloro-N-(3-chloro-4-(1,3-dioxotetrahydroimidazo[1,5-a]pyridin-2(1H,3H,5H)-yl)phenyl)furan-2-carboxamide] | 6200 |
| O=C(Nc1ccc(N2C(=O)C3CCCN3C2=O)c(Cl)c1)c1ccccn1 (stereo not shown) [Example 1.3.9, N-(3-chloro-4-(1,3-dioxo-1H-pyrrolo[1,2-c]imidazol-2(3H,5H,6H,7H,7aH)-yl)phenyl)picolinamide] | 2110 |
| O=C(Nc1ccc(N2C(=O)C3CCCCN3C2=S)c(Cl)c1)c1ccccn1 (stereo not shown) [Example 1.3.10] | 367 |
| CN1CC(=O)N(c2ccc(NC(=O)c3ccccn3)cc2Cl)C1=O [Example 1.3.11, N-(3-chloro-4-(3-methyl-2,5-dioxoimidazolin-1-yl)phenyl)picolinamide] | 7060 |
| O=C(Nc1ccc(N2C(=O)NC3(CCCCC3)C2=O)c(Cl)c1)c1ccccn1 [Example 1.3.12, N-(3-chloro-4-(2,4-dioxo-1,3-diazaspiro[4.5]decan-3-yl)phenyl)picolinamide] | 229 |
| O=C(Nc1ccc(N2C(=O)NC3(CCCC3)C2=O)c(Cl)c1)c1ccccn1 [Example 1.3.13, N-(3-chloro-4-(2,4-dioxo-1,3-diazaspiro[4.4]nonan-3-yl)phenyl)picolinamide] | 795 |
| O=C(Nc1ccc(N2C(=O)NC3(CCC3)C2=O)c(Cl)c1)c1ccccn1 [Example 1.3.14, N-(3-chloro-4-(6,8-dioxo-5,7-diazaspiro[3.4]octan-7-yl)phenyl)picolinamide] | 1280 |
| O=C(Nc1ccc(N2C(=O)NC3(CCCCCC3)C2=O)c(Cl)c1)c1ccccn1 [Example 1.3.15, N-(3-chloro-4-(2,4-dioxo-1,3-diazaspiro[4.6]undecan-3-yl)phenyl)picolinamide] | 222 |
| CC(C)C[C@]1(C)NC(=O)N(c2ccc(NC(=O)c3ccccn3)cc2Cl)C1=O [Example 1.3.16, (S)-N-(3-chloro-4-(4-isobutyl-4-methyl-2,5-dioxoimidazolidin-1-yl)phenyl)picolinamide] | 3590 |
